Test results taken from patent US7396837B2, “Antitumoral analogs of lamellarins” (Pharma Mar, S.A.U., priority 2002, dated 2008).
Where two headings read alike, the source gives them in different places.

Experiments:
Format in all cases: cell-based
[1] = test system: K-562; test: SRB colorimetric cell growth inhibition assay, K-562; details: Homo sapiens; for GI50: GI=growth inhibition, read-out: GI50 K-562; for IC (TGI): total growth inhibition (cytostatic effect), read-out: TGI K-562; for CC50: cell killing (cytotoxic effect)
How it was run: (§1)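 Cancer cells grown in vitro were continuously treated with compound. Cell mass was then determined by SRB staining and expressed as growth inhibition.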

[2] = test system: A-549; test: SRB colorimetric cell growth inhibition assay, A-549; details: Homo sapiens; for GI50: GI=growth inhibition, read-out: GI50 A-549; for IC (TGI): total growth inhibition (cytostatic effect), read-out: TGI A-549; for CC50: cell killing (cytotoxic effect)
How it was run: as §1

[3] = test system: SK-MEL-28; test: SRB colorimetric cell growth inhibition assay, SK-MEL-28; details: Homo sapiens; for GI50: GI=growth inhibition, read-out: GI50 MEL-28; for IC (TGI): total growth inhibition (cytostatic effect), read-out: TGI MEL-28; for CC50: cell killing (cytotoxic effect)
How it was run: as §1

[4] = test system: HT-29; test: SRB colorimetric cell growth inhibition assay, HT-29; details: Homo sapiens; for GI50: GI=growth inhibition, read-out: GI50 HT-29; for IC (TGI): total growth inhibition (cytostatic effect), read-out: TGI HT-29; for CC50: cell killing (cytotoxic effect)
How it was run: as §1

[5] = test system: LoVo; test: SRB colorimetric cell growth inhibition assay, LoVo; details: Homo sapiens, LoVo; for CC50: cell killing (cytotoxic effect); for GI50: GI=growth inhibition, read-out: GI50 LOVO; for IC (TGI): total growth inhibition (cytostatic effect), read-out: TGI LOVO
How it was run: as §1

[6] = test system: LoVo-Dox; test: SRB colorimetric cell growth inhibition assay, LoVo-Dox (MDR); details: Homo sapiens; for GI50: GI=growth inhibition, read-out: GI50 LOVO-DOX; for IC (TGI): total growth inhibition (cytostatic effect), read-out: TGI LOVO-DOX; for CC50: cell killing (cytotoxic effect)
How it was run: as §1

[7] = test system: DU-145; test: SRB colorimetric cell growth inhibition assay, DU-145; details: Homo sapiens; for GI50: GI=growth inhibition, read-out: GI50 DU-145; for IC (TGI): total growth inhibition (cytostatic effect), read-out: TGI DU-145; for CC50: cell killing (cytotoxic effect)
How it was run: as §1

[8] = test system: LNCaP; test: SRB colorimetric cell growth inhibition assay, LNCaP; details: Homo sapiens, LNCaP; for GI50: GI=growth inhibition, read-out: GI50 LN-caP; for IC (TGI): total growth inhibition (cytostatic effect), read-out: TGI LN-caP; for CC50: cell killing (cytotoxic effect)
How it was run: as §1

[9] = test system: SK-BR-3; test: SRB colorimetric cell growth inhibition assay, SK-BR-3; details: Homo sapiens; for GI50: GI=growth inhibition, read-out: GI50 SK-BR-3; for IC (TGI): total growth inhibition (cytostatic effect), read-out: TGI SK-BR-3; for CC50: cell killing (cytotoxic effect)
How it was run: as §1

[10] = test system: IGROV; test: SRB colorimetric cell growth inhibition assay, IGROV; details: Homo sapiens, IGROV; for CC50: cell killing (cytotoxic effect); for GI50: GI=growth inhibition, read-out: GI50 IGROV; for IC (TGI): total growth inhibition (cytostatic effect), read-out: TGI IGROV
How it was run: as §1

[11] = test system: IGROV-ET; test: SRB colorimetric cell growth inhibition assay, IGROV-ET (ET-743 resistant); details: Homo sapiens; for GI50: GI=growth inhibition, read-out: GI50 IGROV-ET; for IC (TGI): total growth inhibition (cytostatic effect), read-out: TGI IGROV-ET; for CC50: cell killing (cytotoxic effect)
How it was run: as §1

[12] = test system: HeLa; test: SRB colorimetric cell growth inhibition assay, HeLa; details: Homo sapiens, HeLa; for CC50: cell killing (cytotoxic effect); for IC (TGI): read-out: TGI HELA; for GI50: GI=growth inhibition, read-out: GI50 HELA
How it was run: as §1

[13] = test system: HeLa-APL; test: SRB colorimetric cell growth inhibition assay, HeLa-APL (aplidine resistant); details: Homo sapiens; for GI50: read-out: GI50 HELA-APL; for CC50: cell killing (cytotoxic effect); for IC (TGI): read-out: TGI HELA-APL
How it was run: as §1

[14] = test system: PANC-1; test: SRB colorimetric cell growth inhibition assay, PANC-1; details: Homo sapiens; for GI50: GI=growth inhibition, read-out: GI50 PANC-1; for IC (TGI): total growth inhibition (cytostatic effect), read-out: TGI PANC-1; for CC50: cell killing (cytotoxic effect)
How it was run: as §1

COc1cc(-c2c3c4cc(OC)c(OC(=O)[C@@H](N)CO)cc4oc(=O)c3n3ccc4c(OC(=O)[C@@H](N)CO)c(OC)c(OC)cc4c23)ccc1OC(=O)[C@@H](N)CO [Compound 9]
GI50 ([1]; K562, K-562): 47.3 nM | IC (TGI) ([1]; K562, K-562): 311 nM | CC50 ([1]; K562, read-out: LC50 K-562, K-562): 4180 nM | GI50 ([2]; A549, A-549): 323 nM | IC (TGI) ([2]; A549, A-549): 1150 nM | CC50 ([2]; A549, read-out: LC50 A-549, A-549): 6760 nM | GI50 ([3]; SK-MEL-28, MEL-28): 134 nM | IC (TGI) ([3]; SK-MEL-28, MEL-28): 516 nM | CC50 ([3]; SK-MEL-28, read-out: LC50 MEL-28, MEL-28): 2110 nM | GI50 ([4]; HT-29, HT-29): 1610 nM | IC (TGI) ([4]; HT-29, HT-29): 3280 nM | CC50 ([4]; HT-29, read-out: LC50 HT-29, HT-29): 6660 nM | CC50 ([5]; read-out: LC50 LOVO, LOVO): 2300 nM | GI50 [5]: 243 nM | IC (TGI) [5]: 584 nM | GI50 ([6]; LOVO-DOX): 388 nM | IC (TGI) ([6]; LOVO-DOX): 1140 nM | CC50 ([6]; read-out: LC50 LOVO-DOX, LOVO-DOX): 3630 nM | GI50 ([7]; DU-145, DU-145): 54.3 nM | IC (TGI) ([7]; DU-145, DU-145): 169 nM | CC50 ([7]; DU-145, read-out: LC50 DU-145, DU-145): 615 nM | GI50 ([8]; LN-caP): 174 nM | IC (TGI) ([8]; LN-caP): 422 nM | CC50 ([8]; read-out: LC50 LN-caP, LN-caP): 1380 nM | GI50 ([9]; SK-BR-3, SK-BR-3): 174 nM | IC (TGI) ([9]; SK-BR-3, SK-BR-3): 374 nM | CC50 ([9]; SK-BR-3, read-out: LC50 SK-BR-3, SK-BR-3): 806 nM | CC50 ([10]; read-out: LC50 IGROV, IGROV): 3000 nM | GI50 [10]: 182 nM | IC (TGI) [10]: 909 nM | GI50 ([11]; IGROV-ET): 132 nM | IC (TGI) ([11]; IGROV-ET): 980 nM | CC50 ([11]; read-out: LC50 IGROV-ET, IGROV-ET): 493 nM | CC50 ([12]; read-out: LC50 HELA, HELA): 4060 nM | IC (TGI) [12]: 459 nM | GI50 [12]: 107 nM | GI50 [13]: 282 nM | CC50 ([13]; read-out: LC50 HELA-APL, HELA-APL): 3830 nM | IC (TGI) [13]: 1230 nM | GI50 ([14]; PANC-1, PANC-1): 200 nM | IC (TGI) ([14]; PANC-1, PANC-1): 1560 nM | CC50 ([14]; PANC-1, read-out: LC50 PANC-1, PANC-1): 4910 nM

COc1cc2ccn3c(c(-c4ccc(OC(=O)[C@@H](NC(=O)OC(C)(C)C)C(C)C)c(OC)c4)c4c5cc(OC)c(OC(=O)[C@@H](NC(=O)OC(C)(C)C)C(C)C)cc5oc(=O)c43)c2cc1OC [Compound 15]
GI50 ([1]; K562, K-562): 1600 nM | CC50 ([1]; K562, K-562, read-out: LC50 K-562): 9570 nM | IC (TGI) ([1]; K562, K-562): 3910 nM | GI50 ([2]; A549, A-549): 54.1 nM | CC50 ([2]; A549, A-549, read-out: LC50 A-549): 11000 nM | IC (TGI) ([2]; A549, A-549): 1460 nM | GI50 ([3]; SK-MEL-28, MEL-28): 48.2 nM | CC50 ([3]; SK-MEL-28, MEL-28, read-out: LC50 MEL-28): 7240 nM | IC (TGI) ([3]; SK-MEL-28, MEL-28): 1640 nM | GI50 ([4]; HT-29, HT-29): 47.3 nM | CC50 ([4]; HT-29, HT-29, read-out: LC50 HT-29): 9170 nM | IC (TGI) ([4]; HT-29, HT-29): 111 nM | GI50 [5]: 1680 nM | CC50 ([5]; read-out: LC50 LOVO): 11000 nM | IC (TGI) [5]: 4960 nM | GI50 ([6]; LOVO-DOX): 11000 nM | CC50 ([6]; LOVO-DOX, read-out: LC50 LOVO-DOX): 11000 nM | IC (TGI) ([6]; LOVO-DOX): 11000 nM | GI50 ([7]; DU-145, DU-145): 68.5 nM | CC50 ([7]; DU-145, DU-145, read-out: LC50 DU-145): 11000 nM | IC (TGI) ([7]; DU-145, DU-145): 3080 nM | GI50 ([8]; LN-caP): 56 nM | CC50 ([8]; LN-caP, read-out: LC50 LN-caP): 3930 nM | IC (TGI) ([8]; LN-caP): 609 nM | GI50 ([9]; SK-BR-3, SK-BR-3): 56.1 nM | CC50 ([9]; SK-BR-3, SK-BR-3, read-out: LC50 SK-BR-3): 5840 nM | IC (TGI) ([9]; SK-BR-3, SK-BR-3): 635 nM | GI50 [10]: 86.2 nM | CC50 ([10]; read-out: LC50 IGROV): 9760 nM | IC (TGI) [10]: 2030 nM | GI50 ([11]; IGROV-ET): 6870 nM | CC50 ([11]; IGROV-ET, read-out: LC50 IGROV-ET): 11000 nM | IC (TGI) ([11]; IGROV-ET): 11000 nM | GI50 [12]: 57.9 nM | CC50 ([12]; read-out: LC50 HELA): 7810 nM | IC (TGI) ([12]; total growth inhibition (cytostatic effect)): 1410 nM | GI50 ([13]; HELA-APL, GI=growth inhibition): 2430 nM | CC50 ([13]; HELA-APL, read-out: LC50 HELA-APL): 11000 nM | IC (TGI) ([13]; HELA-APL, total growth inhibition (cytostatic effect)): 5530 nM | GI50 ([14]; PANC-1, PANC-1): 1540 nM | CC50 ([14]; PANC-1, PANC-1, read-out: LC50 PANC-1): 11000 nM | IC (TGI) ([14]; PANC-1, PANC-1): 5260 nM
